How the values were obtained:
[1] = system: adult F. hepatica; assay: In vitro/ex vivo adult worm viability assay; format: cell-based, Fasciola hepatica; conditions: iron or hemin with 1% DMSO, no drug, 48 h or 72 h
Description: The experiments were performed, as described previously. Adult F. hepatica were collected from bovine liver bile ducts obtained from the local slaughterhouse (Basel, Switzerland). After careful washing, a single adult worm was placed per well (6-well plate, Costar, MA, USA) containing 5.4 mL RPMI 1640 (Gibco, N.Y., USA), supplemented with 1% (v/v) antibiotics (50 µg/mL streptomycin and 50 U/mL penicillin), 1% (v/v) drug solution, […] Control worms were incubated in 1% (v/v) DMSO combined with iron or hemin. Experiments were conducted in triplicates and repeated once. Cultures were kept at 37 °C in an atmosphere of 5% CO2. The viabilities of treated and untreated worms were monitored at 0, 24, 48, and 72 h. Worms were examined by eye and/or using a dissecting microscope (20× lenses). The viability of adult flukes was scored using the following scale: 4: normal activity; movements were visible without a microscope, 3: reduced activities, 2: very weak activities detected only using microscopic magnification, and 1: death of worm (no movement observed for two min using a microscope).

[2] = system: HepG2 cells; assay: Adenylate kinase leakage (membrane integrity test); format: cell-based, human
Description: (§1) Stock solutions of the drugs tested were prepared in DMSO 100% (v/v).
(§2) In viability assays, HepG2 cells were treated with 0.1% Triton-X or 0.1% DMSO for positive or negative control, respectively.
The assay was used according to the protocol supplied by the manufacturer.

[3] = system: HepG2 cells; assay: Cellular ATP content (CellTiter-Glo); format: cell-based, human
Description: as §1, §2
To assess cellular ATP content, HepG2 cells were seeded in white-wall 96-well plates with a clear bottom (Nunc). One day after seeding, cells were treated with the respective drugs. […] Luminescence was measured using Tecan M200 Infinite Pro.

[4] = system: HepG2 cells; assay: Cellular reactive oxygen species (DCF-DA); format: cell-based, human
Description: Stock solutions of the drugs tested were prepared in DMSO 100% (v/v). […] LC-MS measurements confirmed the stability of the compounds (data not shown). Treatments with AS, MT04, or OZ78 (100 or 500 µM) were performed either alone or in combination with 8% (v/v) hemin or FeCl2 solution for 24 h. The final iron concentration used was 122 µM (stock 1.5 mM) based on previous in vitro studies with F. hepatica. Dichlorodihydrofluorescein diacetate (DCF-DA) dissolved in DMSO was used to assess cellular formation of reactive oxygen species (ROS). HepG2 cells were seeded in a black-wall 96 well plate with a clear bottom as described above. Briefly, 30 min before treatment started, DCF-DA was added to the cells at a final concentration of 25 µM. DCF-DA was removed completely before the drugs were added. ROS was measured after 90 min and 24 h of drug exposure using a Tecan M200 Infinite Pro (excitation 485 nm, emission 535 nm).

Molecule | viability of adult F. hepatica [1] | cytotoxicity (AK release) [2] | impact on cellular ATP content [3] | increase in ROS compared to DMSO, factor [4]
[Cl][Fe][Cl] [Fe^2+, Fe(II)chloride] | slight reduction in viability | not cytotoxic | no impact on cellular ATP content | did not trigger ROS production
hemin [reference compound] | slight reduction in viability | – | no impact on cellular ATP content | –

— publication PMC6801819, “Exogenous Iron Increases Fasciocidal Activity and Hepatocellular Toxicity of the Synthetic Endoperoxides OZ78 and MT04” (International Journal of Molecular Sciences, 2019)
